In US10065963B2 (Incyte Corporation, priority 2015, dated 2018):
Structures can show the parent of a compound that is named as a salt. Where two headings read alike, the source gives them in different places. Values belong to the compound of their own block, whether it stands above or below them.

Legend:
[1] = target: human JAK2 (a.a. 828-1132) (Homo sapiens (Human), UniProt O60674); assay: In vitro JAK kinase assay (JAK2); assay type: biochemical; conditions: IC50 ratio, 1 mM ATP
[2] = target: human JAK1 (a.a. 837-1142) (Homo sapiens, UniProt P23458); assay: In vitro JAK kinase assay (JAK1); assay type: biochemical; conditions: 1 mM ATP
[3] = tested on: Phosphorylated Ribosomal Protein S6 (RPS6) in THP-1 cells; assay: THP-1 RPS6 ELISA assay; assay type: cell-based, human; conditions: 10 nM MCP-1, read-out: PI3Kγ_THP1_RPS6_ELISA IC50
[4] = target: PI3Kγ (p110γ) Recombinant Human Protein (Homo sapiens (Human), UniProt P48736); assay: PI3K-γ scintillation proximity assay; assay type: biochemical; conditions: 2 μM ATP, 20 μM PIP2
[5] = target: PI3Kδ (p110δ/p85α) Recombinant Human Protein (Homo sapiens (Human), UniProt O00329); assay: PI3Kδ scintillation proximity assay; assay type: biochemical; conditions: 2 μM ATP, 20 μM PIP2
[6] = Homo sapiens, THP-1, THP-1 cells

PI3Kδ (p110δ/p85α) Recombinant Human Protein, sequence (O00329 whole entry): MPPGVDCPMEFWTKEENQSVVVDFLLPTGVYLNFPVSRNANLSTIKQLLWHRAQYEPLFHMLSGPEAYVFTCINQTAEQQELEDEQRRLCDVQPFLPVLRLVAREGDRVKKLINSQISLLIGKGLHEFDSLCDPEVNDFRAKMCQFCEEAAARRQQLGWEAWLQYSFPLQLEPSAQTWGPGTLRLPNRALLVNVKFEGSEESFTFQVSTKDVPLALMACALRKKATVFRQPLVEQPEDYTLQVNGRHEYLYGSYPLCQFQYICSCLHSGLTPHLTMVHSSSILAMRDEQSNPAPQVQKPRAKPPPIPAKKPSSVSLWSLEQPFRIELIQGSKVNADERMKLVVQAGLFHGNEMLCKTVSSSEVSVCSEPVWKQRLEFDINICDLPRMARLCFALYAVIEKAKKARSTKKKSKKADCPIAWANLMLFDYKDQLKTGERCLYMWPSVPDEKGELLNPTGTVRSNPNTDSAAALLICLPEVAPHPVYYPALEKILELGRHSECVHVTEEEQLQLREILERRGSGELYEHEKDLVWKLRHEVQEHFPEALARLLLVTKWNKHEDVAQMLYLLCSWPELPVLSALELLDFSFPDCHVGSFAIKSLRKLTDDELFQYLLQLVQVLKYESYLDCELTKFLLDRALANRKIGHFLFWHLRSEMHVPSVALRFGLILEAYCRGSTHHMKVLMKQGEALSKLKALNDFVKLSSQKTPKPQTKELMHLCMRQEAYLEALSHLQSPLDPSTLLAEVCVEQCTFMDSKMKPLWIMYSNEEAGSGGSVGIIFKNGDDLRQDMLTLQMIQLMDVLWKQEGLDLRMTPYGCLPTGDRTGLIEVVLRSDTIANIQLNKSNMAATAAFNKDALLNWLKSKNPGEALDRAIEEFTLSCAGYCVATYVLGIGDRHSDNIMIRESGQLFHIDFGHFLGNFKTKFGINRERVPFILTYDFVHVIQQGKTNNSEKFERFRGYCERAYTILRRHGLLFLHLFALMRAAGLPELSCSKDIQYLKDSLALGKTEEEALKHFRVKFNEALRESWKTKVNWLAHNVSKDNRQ
PI3Kδ (p110δ/p85α) Recombinant Human Protein, sequence (P27986 whole entry partner): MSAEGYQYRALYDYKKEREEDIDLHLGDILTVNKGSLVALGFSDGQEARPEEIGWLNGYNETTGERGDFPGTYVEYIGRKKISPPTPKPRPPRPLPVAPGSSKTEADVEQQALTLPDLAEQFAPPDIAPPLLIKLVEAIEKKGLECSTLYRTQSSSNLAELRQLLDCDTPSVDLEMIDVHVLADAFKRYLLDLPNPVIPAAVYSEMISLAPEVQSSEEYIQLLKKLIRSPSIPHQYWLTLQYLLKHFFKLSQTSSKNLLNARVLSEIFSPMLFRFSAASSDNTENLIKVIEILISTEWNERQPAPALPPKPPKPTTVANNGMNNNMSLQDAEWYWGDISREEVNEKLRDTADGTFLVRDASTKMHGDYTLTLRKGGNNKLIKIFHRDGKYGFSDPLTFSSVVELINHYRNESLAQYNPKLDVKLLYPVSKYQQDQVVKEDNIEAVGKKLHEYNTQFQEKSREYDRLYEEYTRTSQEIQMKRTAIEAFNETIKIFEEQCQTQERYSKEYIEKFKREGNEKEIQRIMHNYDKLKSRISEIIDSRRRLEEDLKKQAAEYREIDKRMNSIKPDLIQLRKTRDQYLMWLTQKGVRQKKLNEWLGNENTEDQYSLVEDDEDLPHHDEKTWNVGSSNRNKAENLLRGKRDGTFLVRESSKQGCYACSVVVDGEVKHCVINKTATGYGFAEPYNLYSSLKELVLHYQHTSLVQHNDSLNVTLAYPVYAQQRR
PI3Kγ (p110γ) Recombinant Human Protein, sequence (P48736 whole entry): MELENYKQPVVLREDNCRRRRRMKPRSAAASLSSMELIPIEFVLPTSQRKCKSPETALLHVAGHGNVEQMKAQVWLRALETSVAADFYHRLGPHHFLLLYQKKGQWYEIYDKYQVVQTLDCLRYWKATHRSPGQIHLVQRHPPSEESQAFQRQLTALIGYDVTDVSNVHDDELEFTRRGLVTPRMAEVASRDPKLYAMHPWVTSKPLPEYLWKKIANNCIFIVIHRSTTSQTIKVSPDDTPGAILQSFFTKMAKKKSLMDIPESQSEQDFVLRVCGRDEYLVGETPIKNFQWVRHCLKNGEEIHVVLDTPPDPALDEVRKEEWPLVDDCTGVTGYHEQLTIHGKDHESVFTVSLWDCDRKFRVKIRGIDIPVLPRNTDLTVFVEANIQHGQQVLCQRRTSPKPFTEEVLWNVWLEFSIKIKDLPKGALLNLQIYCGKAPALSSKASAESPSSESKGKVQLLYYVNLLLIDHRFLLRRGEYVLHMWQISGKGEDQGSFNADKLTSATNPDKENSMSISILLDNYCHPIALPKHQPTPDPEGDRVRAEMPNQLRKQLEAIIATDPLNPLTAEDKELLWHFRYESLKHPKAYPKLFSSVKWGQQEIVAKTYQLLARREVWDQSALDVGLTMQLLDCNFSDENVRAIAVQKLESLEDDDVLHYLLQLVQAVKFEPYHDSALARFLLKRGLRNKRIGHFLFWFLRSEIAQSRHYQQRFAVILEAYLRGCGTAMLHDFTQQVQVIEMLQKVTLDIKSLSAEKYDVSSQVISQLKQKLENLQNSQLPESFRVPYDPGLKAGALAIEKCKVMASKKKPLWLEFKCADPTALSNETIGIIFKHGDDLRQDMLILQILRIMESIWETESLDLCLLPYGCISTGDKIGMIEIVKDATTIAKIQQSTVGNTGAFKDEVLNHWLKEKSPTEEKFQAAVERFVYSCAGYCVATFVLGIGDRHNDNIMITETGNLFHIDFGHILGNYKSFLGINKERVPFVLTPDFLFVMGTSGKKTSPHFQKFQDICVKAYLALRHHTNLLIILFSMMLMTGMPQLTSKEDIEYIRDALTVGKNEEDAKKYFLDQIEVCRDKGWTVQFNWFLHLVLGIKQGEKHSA
human JAK2 (a.a. 828-1132), sequence (O60674 828-1132): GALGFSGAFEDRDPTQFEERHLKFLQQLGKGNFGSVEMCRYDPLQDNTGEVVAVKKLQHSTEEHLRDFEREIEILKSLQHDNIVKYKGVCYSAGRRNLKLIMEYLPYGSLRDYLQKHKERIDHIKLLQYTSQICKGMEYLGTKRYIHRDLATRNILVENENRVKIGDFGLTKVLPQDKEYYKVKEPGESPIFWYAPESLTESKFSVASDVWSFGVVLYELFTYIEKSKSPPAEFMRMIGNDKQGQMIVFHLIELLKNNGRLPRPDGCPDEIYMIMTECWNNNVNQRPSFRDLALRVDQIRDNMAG

SMILES: N#CCC(C1CCN(c2cccc(Cl)n2)C1)n1cc(-c2ncnc3[nH]ccc23)cn1 (single isomer, unassigned) [Example 3, 3-[1-(6-chloropyridin-2-yl)pyrrolidin-3-yl]-3-[4-(7H-pyrrolo[2,3-d]pyrimidin-4-yl)-1H-pyrazol-1-yl]propanenitrile]
JAK2/JAK1 [1]: >10
IC50 [2]: < 0.01 µM

SMILES: COC1CCN(c2c(C(C)NC(=O)c3c(N)nn4cccnc34)cc(Cl)c3cn[nH]c23)C1 (centres unmarked) [Example 91, 2-Amino-N-{1-[4-chloro-7-(3-methoxypyrrolidin-1-yl)-2H-indazol-6-yl]ethyl}pyrazolo[1,5-a]pyrimidine-3-carboxamide bis(trifluoroacetate)]
IC50 [3, 6]: < 1 µM
IC50 [4]: < 0.1 µM
IC50 [5]: < 0.1 µM

SMILES: CC(NC(=O)c1c(N)nn2cccnc12)c1cc(Cl)c2cncn2c1N1CCCC(C)(O)C1 (single isomer, unassigned) [Example 76B, 2-Amino-N-{1-[8-chloro-5-(3-hydroxy-3-methylpiperidin-1-yl)imidazo[1,5-a]pyridin-6-yl]ethyl}pyrazolo[1,5-a]pyrimidine-3-carboxamide trifluoroacetate]
IC50 ([3]; THP-1 cells): < 0.5 µM
IC50 [4]: < 0.1 µM
IC50 [5]: < 0.5 µM

SMILES: CNC(=O)C1CCN(c2c(C(C)NC(=O)c3c(N)nn4cccnc34)cc(Cl)c3cn[nH]c23)CC1 (centres unmarked) [Example 107, 2-Amino-N-[1-(4-chloro-7-{4-[(methylamino)carbonyl]piperidin-1-yl}-2H-indazol-6-yl)ethyl]pyrazolo[1,5-a]pyrimidine-3-carboxamide trifluoroacetate]
IC50 [3, 6]: < 0.5 µM
IC50 [4]: < 0.1 µM
IC50 [5]: < 0.5 µM

SMILES: CC(NC(=O)c1c(N)nn2cccnc12)c1cc(Cl)c2cncn2c1N1CCC(C)(O)CC1 (centres unmarked) [Example 87, 2-Amino-N-(1-(8-chloro-5-(4-hydroxy-4-methylpiperidin-1-yl)imidazo[1,5-a]pyridin-6-yl)ethyl)pyrazolo[1,5-a]pyrimidine-3-carboxamide trifluoroacetate]
IC50 [3, 6]: < 0.5 µM
IC50 [4]: < 0.1 µM
IC50 [5]: < 0.5 µM

SMILES: CCOc1c(C(C)NC(=O)c2c(N)nn3ccc(-c4cccnc4)nc23)cc(Cl)c2cn[nH]c12 (centres unmarked) [Example 50, 2-Amino-N-[1-(4-chloro-7-ethoxy-1H-indazol-6-yl)ethyl]-5-pyridin-3-ylpyrazolo[1,5-a]pyrimidine-3-carboxamide bis(trifluoroacetate)]
IC50 [3, 6]: < 0.5 µM
IC50 [4]: < 0.1 µM
IC50 [5]: < 0.1 µM

SMILES: COc1cncc(-c2c(C(C)NC(=O)c3c(N)nn4cccnc34)cc(Cl)c3cncn23)c1 (centres unmarked) [Example 134, 2-Amino-N-{1-[8-chloro-5-(5-methoxypyridin-3-yl)imidazo[1,5-d]pyridin-6-yl]ethyl}pyrazolo[1,5-a]pyrimidine-3-carboxamide trifluoroacetate salt]
IC50 ([3]; THP-1 cells): > 1 µM
IC50 [4]: < 0.1 µM
IC50 [5]: < 0.5 µM

SMILES: CC(NC(=O)c1c(N)nn2cccnc12)c1cc(Cl)c2c(C#N)ncn2c1-c1cccnc1 (racemic) [Example 128, 2-Amino-N-[1-(8-chloro-1-cyano-5-pyridin-3-ylimidazo[1,5-a]pyridin-6-yl)ethyl]pyrazolo[1,5-a]pyrimidine-3-carboxamide trifluoroacetate salt]
IC50 [3, 6]: > 1 µM
IC50 [4]: < 0.1 µM
IC50 [5]: < 2 µM

Next, values leading:

IC50 [3, 6]: < 0.5 µM
IC50 [4]: < 0.1 µM
IC50 [5]: < 0.5 µM
SMILES: CC(NC(=O)c1c(N)nn2cccnc12)c1cc(Cl)c2cncn2c1N1CCC(Br)CC1 (racemic) [Example 147, 2-Amino-N-{1-[5-(4-bromopiperidin-1-yl)-8-chloroimidazo[1,5-a]pyridin-6-yl]ethyl}pyrazolo[1,5-a]pyrimidine-3-carboxamide trifluoroacetate salt]

IC50 ([3]; THP-1 cells): < 0.5 µM
IC50 [4]: < 0.1 µM
IC50 [5]: < 0.1 µM
SMILES: CC(NC(=O)c1c(N)nn2cccnc12)c1cc(Cl)c2cncn2c1N1C[C@@H](O)C[C@H](O)C1 (stereo partly drawn) [Example 150, 2-Amino-N-(1-{8-chloro-5-[(3S,5S)-3,5-dihydroxypiperidin1-yl]imidazo[1,5-a]pyridin-6-yl}ethyl)pyrazol[1,5-a]pyrimidine-3-carboxamide trifluoroacetate salt]

IC50 [3, 6]: < 0.5 µM
IC50 [4]: < 0.1 µM
IC50 [5]: < 0.5 µM
SMILES: CC(NC(=O)c1c(N)nn2cccnc12)c1cc(Cl)c2cncn2c1N1CC[C@@H](F)C1 (stereo partly drawn) [Example 75A, 2-Amino-N-(1-{8-chloro-5-[(3R)-3-fluoropyrrolidin-1-yl]imidazo[1,5-a]pyridin-6-yl}ethyl)pyrazolo[1,5-a]pyrimidine-3-carboxamide bistrifluoroacetate]

IC50 [3, 6]: < 0.5 µM
IC50 [4]: < 0.1 µM
IC50 [5]: < 0.1 µM
SMILES: CC(NC(=O)c1c(N)nn2cccnc12)c1cc(Cl)c2cncn2c1N1CCC[C@@H]1C (stereo partly drawn) [Example 71B, 2-Amino-N-(1-{8-chloro-5-[(2S)-2-methylpyrrolidin-1-yl]imidazo[1,5-a]pyridin-6-yl}ethyl)pyrazolo[1,5-a]pyrimidine-3-carboxamide bistrifluoroacetate]
